Article PMC6481723, “Fibroblast migration correlates with matrix softness. A study in knob-hole engineered fibrin” (APL Bioengineering, 2018)
Like-named read-outs stand apart in the source and are kept apart here. Ends that are not written are not given here.

What was measured:
bovine fibrinogen = target: T1, bovine fibrinogen (Bos taurus, UniProt P02672+P02676+P12799); experiment: Isothermal titration calorimetry (ITC) binding to fibrinogen; conditions: ITC in HBS; peptides 5.7-5.9 mM titrated into 0.175 mM fibrinogen; PEG-pep1 1.7 mM or PEG-pep2 5.2 mM into 0.012 mM fibrinogen; n = 3 independent samples
T1 sequence (P12799 25-444): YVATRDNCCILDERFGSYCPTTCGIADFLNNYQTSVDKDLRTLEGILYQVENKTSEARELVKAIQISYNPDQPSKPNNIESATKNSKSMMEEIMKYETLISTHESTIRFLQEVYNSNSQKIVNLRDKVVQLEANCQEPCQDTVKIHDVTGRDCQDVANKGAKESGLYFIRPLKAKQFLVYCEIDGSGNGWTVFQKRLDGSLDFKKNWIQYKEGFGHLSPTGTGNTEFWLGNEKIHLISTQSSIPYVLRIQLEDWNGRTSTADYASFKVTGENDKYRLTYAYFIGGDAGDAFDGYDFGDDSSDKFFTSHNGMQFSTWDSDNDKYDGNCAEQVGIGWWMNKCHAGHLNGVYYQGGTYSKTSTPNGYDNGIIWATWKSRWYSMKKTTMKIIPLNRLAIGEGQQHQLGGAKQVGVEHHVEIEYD
T1 sequence (P02676 1-468): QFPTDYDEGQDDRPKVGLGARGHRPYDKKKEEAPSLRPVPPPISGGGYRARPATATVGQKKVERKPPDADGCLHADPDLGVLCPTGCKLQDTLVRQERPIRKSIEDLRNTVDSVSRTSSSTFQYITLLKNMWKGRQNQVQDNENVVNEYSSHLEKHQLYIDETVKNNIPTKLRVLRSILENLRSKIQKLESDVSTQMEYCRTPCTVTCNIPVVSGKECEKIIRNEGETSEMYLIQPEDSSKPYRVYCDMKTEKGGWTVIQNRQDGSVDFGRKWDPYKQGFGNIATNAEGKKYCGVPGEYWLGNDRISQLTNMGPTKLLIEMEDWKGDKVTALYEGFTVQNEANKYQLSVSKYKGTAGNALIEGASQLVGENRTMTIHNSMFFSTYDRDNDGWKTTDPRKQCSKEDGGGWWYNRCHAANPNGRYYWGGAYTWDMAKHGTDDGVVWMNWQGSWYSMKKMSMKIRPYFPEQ
T1 sequence (P02672 20-615 partner): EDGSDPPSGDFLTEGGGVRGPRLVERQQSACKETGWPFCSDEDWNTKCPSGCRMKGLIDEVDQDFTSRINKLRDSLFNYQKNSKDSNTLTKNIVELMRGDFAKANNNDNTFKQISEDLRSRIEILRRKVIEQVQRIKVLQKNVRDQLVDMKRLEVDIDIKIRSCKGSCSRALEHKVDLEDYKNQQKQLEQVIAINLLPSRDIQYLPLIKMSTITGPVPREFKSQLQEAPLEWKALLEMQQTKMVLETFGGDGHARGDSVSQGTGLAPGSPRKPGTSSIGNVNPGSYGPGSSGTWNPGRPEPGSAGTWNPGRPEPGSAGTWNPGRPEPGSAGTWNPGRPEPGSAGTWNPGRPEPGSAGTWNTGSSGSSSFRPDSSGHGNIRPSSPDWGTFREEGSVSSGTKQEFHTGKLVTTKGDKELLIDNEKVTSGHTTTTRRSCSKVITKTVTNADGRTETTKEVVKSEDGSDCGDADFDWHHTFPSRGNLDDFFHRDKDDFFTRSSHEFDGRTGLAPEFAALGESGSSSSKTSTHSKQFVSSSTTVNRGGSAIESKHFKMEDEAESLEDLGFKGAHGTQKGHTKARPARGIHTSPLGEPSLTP
Description: (§1) Two techniques were used to confirm that PEG-peptides retained the ability to bind to fibrinogen (Fig. 1 and Table I, right): Fluorescence Anisotropy (FA) and Isothermal Titration Calorimetry (ITC). In FA measurements [Fig. 1(a)], the dissociation constant (Kd) was determined via saturation experiments for the non-conjugated peptides, and via competition experiments for the PEG-peptides. In the first case, saturation was achieved by adding increasing amounts of fibrinogen to a given amount of fluorescein-labelled peptides. In competition experiments, fibrinogen was pre-complexed with fluorescein-labelled peptides; these low molecular weight fluorophores were displaced upon addition of non-labelled conjugates, with a corresponding decrease in the polarization of the emitted light (smaller tumbling time).
The sample cell for this study can contain up to 270 μl of liquid. Fibrinogen/peptide samples were prepared adding 2 μl aliquots of peptide solution (5.91, 5.92, and 5.73 mM for Pep1, Pep2, and Pep3, respectively) under continuous stirring to 200 μl of 0.175 mM of bovine fibrinogen solution. Fibrinogen/PEG-peptide complexes were prepared adding 2 μl of 1.7 mM of PEG-pep1 or 5.2 mM of PEG-pep2 to 200 μl of 0.012 mM of bovine fibrinogen solution. Note that fibrinogen was prepared as follow: 60 mg of fibrinogen were dissolved in 1 mL HBS for 2 h at 37 °C and then dialyzed (Float-A-Lyzer G2 MWCO: 0.5–1 kDa, Spectrum, Inc.) against HBS for 24 h.

fibrinogen [1] = target: T2, fibrinogen (Bos taurus, UniProt P02672+P02676+P12799); experiment: Fluorescence anisotropy (FA) saturation experiments with fluorescein-labelled peptides; format: binding; conditions: 5IAF-labelled peptide 25-30 μM, fibrinogen 50 nM-103 μM, HBS, 1 h room temperature; Hill model; n = 3
T2 sequence (P12799 25-444): T1 sequence (P12799 25-444)
T2 sequence (P02676 1-468): T1 sequence (P02676 1-468)
T2 sequence (P02672 20-615 partner): T1 sequence (P02672 20-615 partner)
Description: as §1
Equal volumes (100 μl) of a labelled peptide solution (5IAF-pep1, 5IAF-pep2, or 5IAF-pep3) in HEPES (4-(2-hydroxyethyl)-1-piperazineethanesulfonic acid)-buffered saline (HBS) and of a fibrinogen solution were mixed together by gentle pipetting into a 96-well plate to obtain final concentrations of fibrinogen ranging from 50 nM to 103 μM, and a constant peptide concentration, i.e., 26 μM for 5IAF-pep1, 25 μM for 5IAF-pep2, or 30 μM for 5IAF-pep3. […] All mixed reagents were incubated for 1 h at room temperature before recording fluorescence polarization values.

fibrin clotting = conditions: cited from earlier work
fibrinogen [2] = target: T2, fibrinogen; experiment: Fluorescence anisotropy (FA) competition experiments (displacement of 5IAF-peptides from fibrinogen); format: binding; conditions: 36 μM fibrinogen pre-complexed with 5IAF-pep1 (0.25 μM) or 5IAF-pep2 (0.8 μM), displaced by PEG-peptide, 1 h 37 °C, HBS; n = 3
Description: as §1
Fibrinogen/5IAF-pep1 or 5IAF-pep2 complexes were prepared as described in the saturation experiments using 50 μl initial volumes and keeping the fibrinogen concentration fixed. Solutions were pre-incubated for 1 h at room temperature before 50 μl of PEG-peptide 1 or 2 solutions in HBS was added into the wells to obtain a final volume of 150 μl per well. Final concentrations were 36 μM fibrinogen; 0.25 μM 5IAF-pep1 and 0.6 μM to 1.2 mM PEG-pep1; 0.8 μM 5IAF-pep2; and 0.2 μM to 5 mM PEG-pep2. Polarization values were measured after 1 h of incubation at 37 °C. […]

[3] = system: adult Human Dermal Fibroblasts (HDFa); experiment: Fibrin-in-fibrin HDFa migration assay (radial invasion); format: cell-based; conditions: 220 KIU of aprotinin in the media
Description: This migration assay is based on a fibrin-in-fibrin assay: when a volume of HDFa-laden fibrinogen solution is injected into a gelling fibrinogen-based formulation, cells migrate from the clot into the surrounding matrix; the maximum distance covered in the unit time [Fig. 8(a) top and insert in the bottom graph] is a measure of the cell migration capacity. This model is particularly advantageous to assess the migration of cells separately from other phenomena; for example, if seeded homogeneously and/or moving as a coherent front, cells can rapidly remodel and contract the matrix,[41] and this can profoundly influence the characteristics of their migration too.[42]
Standard cell culture methods are reported in the supplementary material, Sec. 1.4SI. For the migration assays, adult Human Dermal Fibroblasts (HDFa) were gently suspended in 12.5 mg/ml fibrinogen (in HBS) at a final cell density of 3 × 10^7 cells/ml. […] The cell migration rate was measured by analyzing acquired images with ImageJ (v1.49p, http://rsb.info.nih.gov/ij): the migration area was approximated to a circle and the cell invasion was thus quantified as the variation of the initial diameter, as previously reported by Lutolf et al.[28] An average of nine time points per diameter were measured from day 0 to 8, returning the average migration rate (μm/day). […]

Substance	Kd (bovine fibrinogen) [µM]	Kd (fibrinogen [1]) [µM]	other results
GHRPGCG [Pep2]	351 ± 10	335 ± 6	
GPRP [glycine-proline-arginine-proline]			effect on fibrin clotting (fibrin clotting; 1:20 fibrinogen/peptide molar ratio): significantly reduce fibrin clotting; effect on fibrin clotting (fibrin clotting; above 1:100 fibrinogen/peptide molar ratio): completely prevent
GPRPGCG [Pep1]	44 ± 9	40 ± 1	
PEG-pep1: 2 kDa PEG vinyl sulfone conjugated to Pep1; rest of material PEG-ME (GPRPGCG; Cys6 thiol joined by thioether (Michael addition) to 2 kDa PEG vinyl sulfone; free N-terminus (A-knob mimic); about 20 mol% of the material is PEG-mercaptoethanol; The GC)	103 ± 5		Kd (fibrinogen [2]): 135 ± 8 µM
aprotinin			HDFa migration rate in presence vs absence of the inhibitor [3]: virtually identical migration rates
